From US20240116857A1 (St. Louis University, priority 2022, published 2024)
Read-outs that look alike come from different tables or passages of the source.

Test system: E. coli BW25113
Assay: MIC, 2-fold broth dilution, E. coli BW25113
Assay type: cell-based, Escherichia coli
Conditions: Escherichia coli, E. coli BW25113
[1] = asterisk in column >50, read-out: MIC, μM >50
[2] = asterisk in column 1-10, read-out: MIC, μM 1-10
[3] = asterisk in column 10-50, read-out: MIC, μM 10-50

SMILES | MIC [1] [µM] | other results
Cc1cc(NC(=O)c2ccc(-c3ccc(C(=O)Nc4ccc(N(C)C)c(C)c4)cc3)cc2)ccc1N(C)C [Example 36, N^4,N^4′-bis(4-(dimethylamino)-3-methylphenyl)-[1,1′-biphenyl]-4,4′-dicarboxamide] | > 50 | 
Cc1cc(NC(=O)c2ccc(-c3ccc(C(=O)Nc4ccc([N+](C)(C)C)c(C)c4)cc3)cc2)ccc1[N+](C)(C)C [Example 37, 4,4′-(([1,1′-biphenyl]-4,4′-dicarbonyl)bis(azanediyl))bis(N,N,N,2-tetramethylbenzenaminium)] | > 50 | 
CN(C)c1ccc(NC(=O)c2ccc(-c3ccc(C(=O)Nc4ccc(N(C)C)c(Cl)c4)cc3)cc2)cc1Cl [Example 38, N^4,N^4′-bis(3-chloro-4-(dimethylamino)phenyl)-[1,1′-biphenyl]-4,4′-dicarboxamide] | > 50 | 
Cc1cc(C(=O)Nc2ccc(N(C)C)cc2)ccc1-c1ccc(C(=O)Nc2ccc(N(C)C)cc2)cc1 [Example 40, N^4,N^4′-bis(4-(dimethylamino)phenyl)-2-methyl-[1,1′-biphenyl]-4,4′-dicarboxamide] | > 50 | 
O=C(Nc1ccc(Nc2ccncc2)cc1)c1ccc(C(=O)Nc2ccc(Nc3ccncc3)cc2)c(C(F)(F)F)c1 [Example 41, N^1,N^4-bis(4-(pyridin-4-ylamino)phenyl)-2-(trifluoromethyl)terephthalamide] | > 50 | 
Cc1cc(C(=O)Nc2ccc([N+](C)(C)C)cc2)ccc1-c1ccc(C(=O)Nc2ccc([N+](C)(C)C)cc2)cc1 [Example 42, 4,4′-((2-methyl-[1,1′-biphenyl]-4,4′-dicarbonyl)bis(azanediyl))bis(N,N,N-trimethylbenzenaminium)] | > 50 | 
O=C(Nc1ccc(Nc2ccncc2)cc1)c1ccc(C(=O)Nc2ccc(Nc3ccncc3)cc2)c(OC(F)(F)F)c1 [Example 43, N^1,N^4-bis(4-(pyridin-4-ylamino)phenyl)-2-(trifluoromethoxy)terephthalamide] | > 50 | 
CN(C)C1CCC(NC(=O)c2ccc(-c3ccc(C(=O)NC4CCC(N(C)C)CC4)cc3)cc2)CC1 (centres unmarked) [Example 46, N^4,N^4′-bis(4-(dimethylamino)cyclohexyl)-[1,1′-biphenyl]-4,4′-dicarboxamide] | > 50 | 
O=C(Nc1ccc(Nc2ccncc2)cc1)c1ccc(Cc2ccc(C(=O)Nc3ccc(Nc4ccncc4)cc3)cc2)cc1 [Example 48] | > 50 | 
CN(C)c1ccc(NC(=O)c2ccc(Cc3ccc(C(=O)Nc4ccc(N(C)C)cc4)cc3)cc2)cc1 [Example 49, 4,4′-methylenebis(N-(4-(dimethylamino)phenyl)benzamide)] | > 50 | 
CN1CCC(Nc2ccc(NC(=O)c3ccc(C(=O)Nc4ccc(NC5CCN(C)CC5)cc4)cc3)cc2)CC1 [Example 50, N^1,N^4-bis(4-((1-methylpiperidin-4-yl)amino)phenyl)terephthalamide] | > 50 | 
O=C(Nc1ccc(Nc2ccncc2)cc1)c1ccc(C(=O)Nc2ccc(Nc3ccncc3)cc2)c(F)c1 [Example 51, 2-fluoro-N^1,N^4-bis(4-(pyridin-4-ylamino)phenyl)terephthalamide] | > 50 | 
C[n+]1ccc(Nc2ccc(NC(=O)c3ccc(Cc4ccc(C(=O)Nc5ccc(Nc6cc[n+](C)cc6)cc5)cc4)cc3)cc2)cc1 [Example 52, 4,4′-((((4,4′-methylenebis(benzoyl))bis(azanediyl))bis(4,1-phenylene))bis(azanediyl))bis(1-methylpyridin-1-ium)] |  | MIC [2]: 1 to 10 µM
C[N+](C)(C)c1ccc(NC(=O)c2ccc(Cc3ccc(C(=O)Nc4ccc([N+](C)(C)C)cc4)cc3)cc2)cc1 [Example 53] | > 50 | 
O=C(Nc1ccc(-c2ccncc2)cc1)c1ccc(C(=O)Nc2ccc(-c3ccncc3)cc2)cc1 [Example 54, N^1,N^4-bis(4-(pyridin-4-yl)phenyl)terephthalamide] | > 50 | 
Cc1c[n+](C)ccc1NC(=O)c1ccc(C(=O)Nc2ccc(Nc3cc[n+](C)cc3)cc2)cc1 [Example 55, 1,3-dimethyl-4-(4-((4-((1-methylpyridin-1-ium-4-yl)amino)phenyl)carbamoyl)benzamido)pyridin-1-ium] |  | MIC [3]: 10 to 50 µM
C[n+]1ccc(-c2ccc(NC(=O)c3ccc(C(=O)Nc4ccc(-c5cc[n+](C)cc5)cc4)cc3)cc2)cc1 [Example 56] |  | MIC [2]: 1 to 10 µM
C[n+]1ccc(Nc2ccc(NC(=O)c3ccc(C(=O)Nc4ccc(Nc5cc[n+](C)cc5)cc4)c(F)c3)cc2)cc1 [Example 58, 4,4′-((((2-fluoroterephthaloyl)bis(azanediyl))bis(4,1-phenylene))bis(azanediyl))bis(1-methylpyridin-1-ium)] |  | MIC [2]: 1 to 10 µM
C[n+]1ccc(-c2ccc(NC(=O)c3ccc(-c4ccc(C(=O)Nc5ccc(-c6cc[n+](C)cc6)cc5)cc4)cc3)cc2)cc1 [Example 59, 4,4′-((([1,1′-biphenyl]-4,4′-dicarbonyl)bis(azanediyl))bis(4,1-phenylene))bis(1-methylpyridin-1-ium)] | > 50 | 

SMILES | MIC [1] [µM] | other results
O=C(Nc1ccc(Nc2ccncc2)cc1)[C@H]1CC[C@H](C(=O)Nc2ccc(Nc3ccncc3)cc2)CC1 [Example 60, (E)-N^1,N^4-bis(4-(pyridin-4-ylamino)phenyl)cyclohexane-1,4-dicarboxamide] | > 50 | 
C[N+](C)(C)C1CCC(NC(=O)c2ccc(-c3ccc(C(=O)NC4CCC([N+](C)(C)C)CC4)cc3)cc2)CC1 (centres unmarked) [Example 61, 4,4′-(([1,1′-biphenyl]-4,4′-dicarbonyl)bis(azanediyl))bis(N,N,N-trimethylcyclohexan-1-aminium)] | > 50 | 
C[n+]1ccc(NC(=O)c2ccc(C(=O)Nc3ccc(Nc4cc[n+](C)cc4)cc3)cc2)cc1 [Example 62, 1-methyl-4-(4-((4-((1-methylpyridin-1-ium-4-yl)amino)phenyl)carbamoyl)benzamido)pyridin-1-ium] |  | MIC [3]: 10 to 50 µM
COc1cc(Nc2cc[n+](C)cc2)ccc1NC(=O)c1ccc(C(=O)Nc2cc[n+](C)cc2)cc1 [Example 63, 4-(4-((2-methoxy-4-((1-methylpyridin-1-ium-4-yl)amino)phenyl)carbamoyl)benzamido)-1-methylpyridin-1-ium] | > 50 | 
Cc1cc(NC(=O)c2ccc(C(=O)Nc3ccncc3)cc2)ccc1Nc1ccncc1 [Example 64, N^1-(3-methyl-4-(pyridin-4-ylamino)phenyl)-N^4-(pyridin-4-yl)terephthalamide] | > 50 | 
C[n+]1ccc(NC(=O)c2ccc(C(=O)Nc3ccc(Nc4cc[n+](C)cc4)c(F)c3)cc2)cc1 [Example 66, 1-methyl-4-(4-((3-fluoro-4-((1-methylpyridin-1-ium-4-yl)amino)phenyl)carbamoyl)benzamido)pyridin-1-ium] |  | MIC [3]: 10 to 50 µM
Cc1cc(Nc2cc[n+](C)cc2)ccc1NC(=O)c1ccc(C(=O)Nc2cc[n+](C)cc2)cc1 [Example 67, 1-methyl-4-(4-((2-methyl-4-((1-methylpyridin-1-ium-4-yl)amino)phenyl)carbamoyl)benzamido)pyridin-1-ium] | > 50 | 
O=C(Nc1ccc(Nc2ccncc2)cc1)c1ccc(C(=O)Nc2ccc(Nc3ccncc3)cc2)c(Br)c1 [Example 68, 2-bromo-N^1,N^4-bis(4-(pyridin-4-ylamino)phenyl)terephthalamide] | > 50 | 
C[n+]1ccc(Nc2ccc(NC(=O)C3CCC(C(=O)Nc4ccc(Nc5cc[n+](C)cc5)cc4)CC3)cc2)cc1 (centres unmarked) [Example 69, 4,4′-((((E)-cyclohexanedicarbonylbis(azanediyl))bis(4,1-phenylene))bis(azanediyl))bis(1-methylpyridin-1-ium)] | > 50 | 
CN(C)c1ccc(NS(=O)(=O)c2ccc(-c3ccc(S(=O)(=O)Nc4ccc(N(C)C)cc4)cc3)cc2)cc1 [Example 70, N^4, N^4′-bis(4-(dimethylamino)phenyl)-[1,1′-biphenyl]-4,4′-disulfonamide] | > 50 | 
C[N+](C)(C)c1ccc(NS(=O)(=O)c2ccc(-c3ccc(S(=O)(=O)Nc4ccc([N+](C)(C)C)cc4)cc3)cc2)cc1 [Example 71] | > 50 | 
CN(C)c1ccc(NC(=O)c2ccc(-c3ccc(C(=O)Nc4ccc(N(C)C)cc4)cn3)nc2)cc1 [Example 72, N^5,N^5′-bis(4-(dimethylamino)phenyl)-[2,2′-bipyridine]-5,5′-dicarboxamide] | > 50 | 
C[N+](C)(C)c1ccc(NC(=O)c2ccc(-c3ccc(C(=O)Nc4ccc([N+](C)(C)C)cc4)cn3)nc2)cc1 [Example 73, 4,4′-(([2,2′-bipyridine]-5,5′-dicarbonyl)bis(azanediyl))bis(N,N,N-trimethylbenzenaminium)] | > 50 | 
CN(C)c1ccc(NC(=O)c2ccc(-c3ccc(C(=O)Nc4ccc(N(C)C)c(C(F)(F)F)c4)cc3)cc2)cc1C(F)(F)F [Example 74, N^4,N^4′-bis(4-(dimethylamino)-3-(trifluoromethyl)phenyl)-[1,1′-biphenyl]-4,4′-dicarboxamide] | > 50 | 
CN(C)c1ccc(NC(=O)c2ccc(-c3ccc(C(=O)Nc4ccc(N(C)C)c(F)c4)cc3)cc2)cc1F [Example 75, N^4,N^4′-bis(4-(dimethylamino)-3-fluorophenyl)-[1,1′-biphenyl]-4,4′-dicarboxamide] | > 50 | 
CN(C)c1ccc(NC(=O)c2ccnc(-c3cc(C(=O)Nc4ccc(N(C)C)cc4)ccn3)c2)cc1 [Example 76, N^4,N^4′-bis(4-(dimethylamino)phenyl)-[2,2′-bipyridine]-4,4′-dicarboxamide] | > 50 | 
C[N+](C)(C)c1ccc(NC(=O)c2ccc(-c3ccc(C(=O)Nc4ccc([N+](C)(C)C)c(F)c4)cc3)cc2)cc1F [Example 77, 2-fluoro-4-(4′-{[3-fluoro-4-(trimethylazaniumyl)phenyl]carbamoyl}-[1,1′-biphenyl]-4-amido)-N,N,N-trimethylanilinium] |  | MIC [2]: 1 to 10 µM
C[N+](C)(C)c1ccc(NC(=O)c2ccnc(-c3cc(C(=O)Nc4ccc([N+](C)(C)C)cc4)ccn3)c2)cc1 [Example 78, 4,4′-(([2,2′-bipyridine]-4,4′-dicarbonyl)bis(azanediyl))bis(N,N,N-trimethylbenzenaminium)] | > 50 | 
O=C(Nc1ccc(Nc2ccncc2)cc1)c1ccc(C(=O)Nc2ccc(Nc3ccncc3)cc2)nc1 [Example 79, N^2,N^5-bis(4-(pyridin-4-ylamino)phenyl)pyridine-2,5-dicarboxamide] | > 50 | 
